Columns and labels:
Type in all cases: cell-based
KOPM28 cells = assay: human CML cell proliferation inhibition; conditions: 72 hours, Cell Counting Kit-8
Method: (§1) In order to evaluate the therapeutic effect of the compound according to the present invention on chronic myelogenous leukemia (CML), the following experiment was performed, and the results are shown in Table 6 below. Inhibitory activity to Bcr-Abl kinase was evaluated through the experiment using TCCS and KOPM28 cells, and inhibitory activity to T315I-Bcr-Abl kinase was evaluated through the experiment using T315I-TCCS and T315I-KOPM28 cells.
(§2) Human chronic myelogenous leukemia (CML) cells used in the experiment were TCCS, T315I-TCCS, KOPM28 and T315I-KOPM28, and the four types of cells were provided by University of Yamanashi.
(§3) Four types of human CML cells were each seeded in 96-well plates at the density of 1×10^4/90 μL/well. A culture solution containing 9 concentrations (0.000256 to 100 μM) of each example compound serially diluted in 5 folds or DMSO (control) were added to the plate (10 μL/well) to a final concentration of 0 to 10 μM. The plate was incubated in a 37° C. CO2 incubator for 72 hours.
(§4) After incubation for 72 hours, the plate treated with the compound was treated with Cell Counting Kit-8 (Dojindo Molecular Technologies, Inc) solution at the concentration of 10 μL/well, and then mixed well. Then, the plate was incubated in a CO2 incubator at 37° C. for 2 hours, and absorbance at 450 nm was measured with a microplate reader. Data were expressed as percentage compared to vehicle treated cells and GI50 values were calculated using GraphPad Prism 8.0 (GraphPad software Inc., San Diego).

T315I-TCCS cells = assay: human CML cell proliferation inhibition; conditions: 72 hours, Cell Counting Kit-8
Method: as §1, §2, §3, §4

TCCS cells = assay: human CML cell proliferation inhibition; conditions: 72 hours, Cell Counting Kit-8
Method: as §1, §2, §3, §4

T315I-KOPM28 cells = assay: human CML cell proliferation inhibition; conditions: 72 hours, Cell Counting Kit-8
Method: as §1, §2, §3, §4

T315I-Bcr-Abl (Ba/F3) = assay: Ba/F3 cell proliferation inhibition; conditions: BaF3; 72 hours, Cell Counting Kit-8
Method: as §3, with “[…] lymphocyte cells, Parental (Ba/F3) and T315I-Bcr-Abl (Ba/F3)” for “Four types of human CML cells”, “were” for “were each”, “(0.015” for “(0.000256”, “3” for “5”, “[…])” for “μL/well)”
as §4, with “5.0” for “8.0”, “Diego) […].” for “Diego).”

Parental (Ba/F3) = assay: Ba/F3 cell proliferation inhibition; conditions: BaF3; 72 hours, Cell Counting Kit-8
Method: as §3, with “[…] lymphocyte cells, Parental (Ba/F3) and T315I-Bcr-Abl (Ba/F3)” for “Four types of human CML cells”, “were” for “were each”, “(0.015” for “(0.000256”, “3” for “5”, “[…])” for “μL/well)”
as §4, with “5.0” for “8.0”, “Diego) […].” for “Diego).”

SMILES: Cc1cn(-c2cc(NC(=O)c3cc(F)c(C)c(C#Cc4cnc5c(Nc6cnn(C)c6)cccn45)c3)cc(C(C)(C)C#N)c2)cn1 [Example 2, N-(3-(2-cyanopropan-2-yl)-5-(4-methyl-1H-imidazol-1-yl)phenyl)-3-fluoro-4-methyl-5-((8-((1-methyl-1H-pyrazol-4-yl)amino)imidazo[1,2-a]pyridin-3-yl)ethynyl)benzamide]
- GI50 (KOPM28 cells): < 10 nM
- GI50 (T315I-TCCS cells): < 10 nM
- GI50 (TCCS cells): < 10 nM
- GI50 (T315I-KOPM28 cells): 100 nM
- GI50 (T315I-Bcr-Abl (Ba/F3)): < 50 nM
- GI50 (Parental (Ba/F3)): > 5000 nM

SMILES: Cc1cn(-c2cc(NC(=O)c3ccc(C)c(C#Cc4cnc5c(Nc6cnn(C)c6)cccn45)c3F)cc(C(C)(C)C#N)c2)cn1 [Example 3, N-(3-(2-cyanopropan-2-yl)-5-(4-methyl-1H-imidazol-1-yl)phenyl)-2-fluoro-4-methyl-3-((8-((1-methyl-1H-pyrazol-4-yl)amino)imidazo[1,2-a]pyridin-3-yl)ethynyl)benzamide]
- GI50 (KOPM28 cells): < 10 nM
- GI50 (T315I-TCCS cells): 100 nM
- GI50 (TCCS cells): < 10 nM
- GI50 (T315I-KOPM28 cells): 100 nM
- GI50 (T315I-Bcr-Abl (Ba/F3)): < 50 nM
- GI50 (Parental (Ba/F3)): > 5000 nM

SMILES: Cc1cn(-c2cc(NC(=O)c3cc(F)c(C)c(C#Cc4cnc5c(Nc6cnn(C)c6)cccn45)c3)cc(C(F)(F)F)c2)cn1 [Example 5, 3-fluoro-4-methyl-N-(3-(4-methyl-1H-imidazol-1-yl)-5-(trifluoromethyl)phenyl)-5-((8-((1-methyl-1H-pyrazol-4-yl)amino)imidazo[1,2-a]pyridin-3-yl)ethynyl)benzamide]
- GI50 (KOPM28 cells): 100 nM
- GI50 (T315I-TCCS cells): 100 nM
- GI50 (TCCS cells): 100 nM
- GI50 (T315I-KOPM28 cells): 100 nM
- GI50 (T315I-Bcr-Abl (Ba/F3)): < 50 nM
- GI50 (Parental (Ba/F3)): > 5000 nM

SMILES: Cc1cn(-c2cc(NC(=O)c3ccc(C)c(C#Cc4cnc5c(Nc6cnn(C)c6)cccn45)c3F)cc(C(F)(F)F)c2)cn1 [Example 6, 2-fluoro-4-methyl-N-(3-(4-methyl-1H-imidazol-1-yl)-5-(trifluoromethyl)phenyl)-3-((8-((1-methyl-1H-pyrazol-4-yl)amino)imidazo[1,2-a]pyridin-3-yl)ethynyl)benzamide]
- GI50 (KOPM28 cells): 100 nM
- GI50 (T315I-TCCS cells): 100 nM
- GI50 (TCCS cells): < 10 nM
- GI50 (T315I-KOPM28 cells): > 100 nM
- GI50 (T315I-Bcr-Abl (Ba/F3)): 50 to 500 nM
- GI50 (Parental (Ba/F3)): > 5000 nM

SMILES: Cc1cc(F)c(C(=O)Nc2cc(Oc3ccncc3)cc(C(F)(F)F)c2)cc1C#Cc1cnc2c(Nc3cnn(C)c3)cccn12 [Example 7, 2-fluoro-4-methyl-5-((8-((1-methyl-1H-pyrazol-4-yl)amino)imidazo[1,2-a]pyridin-3-yl)ethynyl)-N-(3-(pyridin-4-yloxy)-5-(trifluoromethyl)phenyl)benzamide]
- GI50 (KOPM28 cells): < 10 nM
- GI50 (T315I-TCCS cells): < 10 nM
- GI50 (TCCS cells): < 10 nM
- GI50 (T315I-KOPM28 cells): < 10 nM
- GI50 (T315I-Bcr-Abl (Ba/F3)): < 50 nM
- GI50 (Parental (Ba/F3)): > 5000 nM

SMILES: Cc1c(F)cc(C(=O)Nc2cc(Oc3ccncc3)cc(C(F)(F)F)c2)cc1C#Cc1cnc2c(Nc3cnn(C)c3)cccn12 [Example 8, 3-fluoro-4-methyl-5-((8-((1-methyl-1H-pyrazol-4-yl)amino)imidazo[1,2-a]pyridin-3-yl)ethynyl)-N-(3-(pyridin-4-yloxy)-5-(trifluoromethyl)phenyl)benzamide]
- GI50 (KOPM28 cells): < 10 nM
- GI50 (T315I-TCCS cells): 100 nM
- GI50 (TCCS cells): < 10 nM
- GI50 (T315I-KOPM28 cells): 100 nM
- GI50 (T315I-Bcr-Abl (Ba/F3)): < 50 nM
- GI50 (Parental (Ba/F3)): > 5000 nM

SMILES: Cc1ccc(C(=O)Nc2cc(Oc3ccncc3)cc(C(F)(F)F)c2)c(F)c1C#Cc1cnc2c(Nc3cnn(C)c3)cccn12 [Example 9, 2-fluoro-4-methyl-3-((8-((1-methyl-1H-pyrazol-4-yl)amino)imidazo[1,2-a]pyridin-3-yl)ethynyl)-N-(3-(pyridin-4-yloxy)-5-(trifluoromethyl)phenyl)benzamide]
- GI50 (KOPM28 cells): < 10 nM
- GI50 (T315I-TCCS cells): 100 nM
- GI50 (TCCS cells): < 10 nM
- GI50 (T315I-KOPM28 cells): 100 nM
- GI50 (T315I-Bcr-Abl (Ba/F3)): < 50 nM
- GI50 (Parental (Ba/F3)): > 5000 nM

SMILES: Cc1cc(F)c(C(=O)Nc2cc(CN3CCN(CCO)CC3)cc(C(C)(C)C#N)c2)cc1C#Cc1cnc2c(Nc3cnn(C)c3)cccn12 [Example 10, N-(3-(2-cyanopropan-2-yl)-5-((4-(2-hydroxyethyl)piperazin-1-yl)methyl)phenyl)-2-fluoro-4-methyl-5-((8-((1-methyl-1H-pyrazol-4-yl)amino)imidazo[1,2-a]pyridin-3-yl)ethynyl)benzamide]
- GI50 (KOPM28 cells): < 10 nM
- GI50 (T315I-TCCS cells): 100 nM
- GI50 (TCCS cells): < 10 nM
- GI50 (T315I-KOPM28 cells): 100 nM
- GI50 (T315I-Bcr-Abl (Ba/F3)): < 50 nM
- GI50 (Parental (Ba/F3)): 500 to 5000 nM

SMILES: Cc1c(F)cc(C(=O)Nc2cc(CN3CCN(CCO)CC3)cc(C(C)(C)C#N)c2)cc1C#Cc1cnc2c(Nc3cnn(C)c3)cccn12 [Example 11, N-(3-(2-cyanopropan-2-yl)-5-((4-(2-hydroxyethyl)piperazin-1-yl)methyl)phenyl)-3-fluoro-4-methyl-5-((8-((1-methyl-1H-pyrazol-4-yl)amino)imidazo[1,2-a]pyridin-3-yl)ethynyl)benzamide]
- GI50 (KOPM28 cells): < 10 nM
- GI50 (T315I-TCCS cells): < 10 nM
- GI50 (TCCS cells): < 10 nM
- GI50 (T315I-KOPM28 cells): 100 nM
- GI50 (T315I-Bcr-Abl (Ba/F3)): < 50 nM
- GI50 (Parental (Ba/F3)): > 5000 nM

SMILES: Cc1ccc(C(=O)Nc2cc(CN3CCN(CCO)CC3)cc(C(C)(C)C#N)c2)c(F)c1C#Cc1cnc2c(Nc3cnn(C)c3)cccn12 [Example 12, N-(3-(2-cyanopropan-2-yl)-5-((4-(2-hydroxyethyl)piperazin-1-yl)methyl)phenyl)-2-fluoro-4-methyl-3-((8-((1-methyl-1H-pyrazol-4-yl)amino)imidazo[1,2-a]pyridin-3-yl)ethynyl)benzamide]
- GI50 (KOPM28 cells): < 10 nM
- GI50 (T315I-TCCS cells): 100 nM
- GI50 (TCCS cells): < 10 nM
- GI50 (T315I-KOPM28 cells): > 100 nM
- GI50 (T315I-Bcr-Abl (Ba/F3)): 50 to 500 nM
- GI50 (Parental (Ba/F3)): > 5000 nM

SMILES: Cc1cn(-c2cc(NC(=O)c3cc(C#Cc4cnc5c(Nc6cnn(C)c6)cccn45)c(C)cc3Cl)cc(C(C)(C)C#N)c2)cn1 [Example 13, 2-chloro-N-(3-(2-cyanopropan-2-yl)-5-(4-methyl-1H-imidazol-1-yl)phenyl)-4-methyl-5-((8-((1-methyl-1H-pyrazol-4-yl)amino)imidazo[1,2-a]pyridin-3-yl)ethynyl)benzamide]
- GI50 (KOPM28 cells): < 10 nM
- GI50 (T315I-TCCS cells): < 10 nM
- GI50 (TCCS cells): < 10 nM
- GI50 (T315I-KOPM28 cells): 100 nM
- GI50 (T315I-Bcr-Abl (Ba/F3)): < 50 nM
- GI50 (Parental (Ba/F3)): > 5000 nM

SMILES: Cc1cn(-c2cc(NC(=O)c3cc(C#Cc4cnc5c(Nc6cnn(C)c6)cccn45)c(C)cc3Cl)cc(C(F)(F)F)c2)cn1 [Example 14, 2-chloro-4-methyl-N-(3-(4-methyl-1H-imidazol-1-yl)-5-(trifluoromethyl)phenyl)-5-((8-((1-methyl-1H-pyrazol-4-yl)amino)imidazo[1,2-a]pyridin-3-yl)ethynyl)benzamide]
- GI50 (KOPM28 cells): < 10 nM
- GI50 (T315I-TCCS cells): 100 nM
- GI50 (TCCS cells): < 10 nM
- GI50 (T315I-KOPM28 cells): 100 nM
- GI50 (T315I-Bcr-Abl (Ba/F3)): < 50 nM
- GI50 (Parental (Ba/F3)): > 5000 nM

SMILES: Cc1cc(Cl)c(C(=O)Nc2cc(Oc3ccncc3)cc(C(F)(F)F)c2)cc1C#Cc1cnc2c(Nc3cnn(C)c3)cccn12 [Example 15, 2-chloro-4-methyl-5-((8-((1-methyl-1H-pyrazol-4-yl)amino)imidazo[1,2-a]pyridin-3-yl)ethynyl)-N-(3-(pyridin-4-yloxy)-5-(trifluoromethyl)phenyl)benzamide]
- GI50 (KOPM28 cells): < 10 nM
- GI50 (T315I-TCCS cells): < 10 nM
- GI50 (TCCS cells): < 10 nM
- GI50 (T315I-KOPM28 cells): < 10 nM
- GI50 (T315I-Bcr-Abl (Ba/F3)): < 50 nM
- GI50 (Parental (Ba/F3)): > 5000 nM

SMILES: Cc1cc(Cl)c(C(=O)Nc2cc(CN3CCN(CCO)CC3)cc(C(C)(C)C#N)c2)cc1C#Cc1cnc2c(Nc3cnn(C)c3)cccn12 [Example 16, 2-chloro-N-(3-(2-cyanopropan-2-yl)-5-((4-(2-hydroxyethyl)piperazin-1-yl)methyl)phenyl)-4-methyl-5-((8-((1-methyl-1H-pyrazol-4-yl)amino)imidazo[1,2-a]pyridin-3-yl)ethynyl)benzamide]
- GI50 (KOPM28 cells): < 10 nM
- GI50 (T315I-TCCS cells): 100 nM
- GI50 (TCCS cells): < 10 nM
- GI50 (T315I-KOPM28 cells): 100 nM
- GI50 (T315I-Bcr-Abl (Ba/F3)): 50 to 500 nM
- GI50 (Parental (Ba/F3)): > 5000 nM

SMILES: Cc1cc(F)c(C(=O)Nc2cc(-c3ccncc3)cc(C(C)(C)C#N)c2)cc1C#Cc1cnc2c(Nc3cnn(C)c3)cccn12 [Example 17, N-(3-(2-cyanopropan-2-yl)-5-(pyridin-4-yl)phenyl)-2-fluoro-4-methyl-5-((8-((1-methyl-1H-pyrazol-4-yl)amino)imidazo[1,2-a]pyridin-3-yl)ethynyl)benzamide]
- GI50 (KOPM28 cells): < 10 nM
- GI50 (T315I-TCCS cells): 100 nM
- GI50 (TCCS cells): < 10 nM
- GI50 (T315I-KOPM28 cells): 100 nM
- GI50 (T315I-Bcr-Abl (Ba/F3)): 50 to 500 nM
- GI50 (Parental (Ba/F3)): > 5000 nM
